Experimental data reported in US11878970B2, “Allosteric chromenone inhibitors of phosphoinositide 3-kinase (PI3K) for the treatment of disease” (Petra Pharma Corporation, priority 2021, dated 2024).
pIC50: −log10 of the molar value.

Columns and labels:
[1] = target: T1, PI3K-α (PIK3CA) H1047R mutant, p110α/p85α complex (Homo sapiens, UniProt P42336, H1047R); assay: PI3K-alpha kinase (PIK3CA) biochemical activity, ADP-Glo, H1047R mutant
T1 construct: Recombinant, catalytically active human full length PIK3KA Wild-type and H1047R mutant; 6×His (N); purchased EMD Millipore Sigma 14-792M
Method in brief: (§1)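 ADP formation measured by ADP-Glo luminescence after reaction at 27 °C to about 10% ATP turnover, using 20 uM ATP, 50 uM PIP2diC8 or soy PI lipid, HEPES pH 7.4 with MgCl2. Enzyme (1-5 nM WT or H1047R p110α/p85α) and compound preincubated 1 h first; 10-point 1:3 curves fitted four-parameter for IC50.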

[2] = target: T2, PI3K-α (PIK3CA) wild-type (WT), p110α/p85α complex (Homo sapiens, UniProt P42336); assay: PI3K-alpha kinase (PIK3CA) biochemical activity, ADP-Glo, wild-type
T2 construct: Recombinant, catalytically active human full length PIK3KA Wild-type and H1047R mutant; 6×His (N); purchased EMD Millipore Sigma 14-602M
Method in brief: as §1

[3] = target: PI3K-α (PIK3CA) in MDA-MB-453 cells (Homo sapiens, UniProt P42336); assay: PI3K-alpha kinase (PIK3CA) in vitro cell based assay, MDA-MB-453 cells, SureFire Ultra AlphaLisa; conditions: read-out: PI3K-α (PIK3CA) in vitro cell based assay IC50
Method in brief: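 Cells treated 3 h in serum-free MEM with 1 μg/mL insulin, 10-point 1:3 series in 0.3% DMSO, then lysed for SureFire Ultra AlphaLisa read-out. Inhibition normalized to DMSO (max) and 1 μM GDC-0032 (min); duplicate averages fitted by 4-parameter logistic for relative IC50.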

[4] = PIP2diC8 lipid substrate (footnote 1)

T1 sequence (P42336 whole entry H1047R): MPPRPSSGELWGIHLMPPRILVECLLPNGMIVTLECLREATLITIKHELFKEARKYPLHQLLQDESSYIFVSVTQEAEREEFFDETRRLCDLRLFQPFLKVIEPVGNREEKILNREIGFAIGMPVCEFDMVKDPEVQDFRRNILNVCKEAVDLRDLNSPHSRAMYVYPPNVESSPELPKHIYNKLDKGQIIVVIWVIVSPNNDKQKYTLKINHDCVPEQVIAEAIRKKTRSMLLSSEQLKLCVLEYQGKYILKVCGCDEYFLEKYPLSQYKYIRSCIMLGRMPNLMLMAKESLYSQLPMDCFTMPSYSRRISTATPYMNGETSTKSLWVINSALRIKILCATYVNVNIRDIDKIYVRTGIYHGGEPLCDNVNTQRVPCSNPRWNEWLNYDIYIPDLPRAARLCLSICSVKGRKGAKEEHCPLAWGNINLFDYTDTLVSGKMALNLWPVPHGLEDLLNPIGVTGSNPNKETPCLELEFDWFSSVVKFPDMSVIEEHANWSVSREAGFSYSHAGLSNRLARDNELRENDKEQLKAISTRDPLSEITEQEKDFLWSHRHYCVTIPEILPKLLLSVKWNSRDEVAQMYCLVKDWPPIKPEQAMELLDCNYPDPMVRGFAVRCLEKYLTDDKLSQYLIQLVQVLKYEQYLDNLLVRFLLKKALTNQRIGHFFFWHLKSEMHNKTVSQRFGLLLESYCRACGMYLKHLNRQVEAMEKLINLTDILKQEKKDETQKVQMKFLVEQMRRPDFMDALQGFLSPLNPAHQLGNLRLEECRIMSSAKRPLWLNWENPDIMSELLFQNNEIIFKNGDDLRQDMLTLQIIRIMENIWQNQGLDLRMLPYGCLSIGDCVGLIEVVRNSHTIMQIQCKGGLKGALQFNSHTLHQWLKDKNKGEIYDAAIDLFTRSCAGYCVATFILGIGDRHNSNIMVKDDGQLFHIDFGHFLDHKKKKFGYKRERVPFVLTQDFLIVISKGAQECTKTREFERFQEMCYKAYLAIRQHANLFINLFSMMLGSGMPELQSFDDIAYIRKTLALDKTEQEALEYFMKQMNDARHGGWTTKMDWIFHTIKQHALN
T1 sequence (P27986 whole entry partner): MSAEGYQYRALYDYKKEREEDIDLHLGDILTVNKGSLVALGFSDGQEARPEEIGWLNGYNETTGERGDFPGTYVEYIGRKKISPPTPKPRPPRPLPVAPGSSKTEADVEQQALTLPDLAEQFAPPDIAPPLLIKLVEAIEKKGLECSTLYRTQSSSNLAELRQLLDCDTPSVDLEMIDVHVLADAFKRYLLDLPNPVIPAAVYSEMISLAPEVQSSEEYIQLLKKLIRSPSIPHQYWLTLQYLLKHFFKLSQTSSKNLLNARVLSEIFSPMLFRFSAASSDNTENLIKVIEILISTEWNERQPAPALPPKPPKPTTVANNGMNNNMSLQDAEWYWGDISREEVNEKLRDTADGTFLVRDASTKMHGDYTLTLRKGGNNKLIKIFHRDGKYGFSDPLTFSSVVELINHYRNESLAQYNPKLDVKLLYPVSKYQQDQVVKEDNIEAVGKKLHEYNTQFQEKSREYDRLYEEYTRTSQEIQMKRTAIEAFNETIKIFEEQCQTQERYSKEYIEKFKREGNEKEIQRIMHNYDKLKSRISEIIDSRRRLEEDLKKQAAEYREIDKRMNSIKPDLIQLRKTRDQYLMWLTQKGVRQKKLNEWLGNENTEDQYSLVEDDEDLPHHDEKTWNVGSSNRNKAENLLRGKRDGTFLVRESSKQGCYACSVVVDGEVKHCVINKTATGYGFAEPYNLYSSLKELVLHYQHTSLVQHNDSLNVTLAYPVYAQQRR
Chain of PI3K-α (PIK3CA) in MDA-MB-453 cells (P27986 2-724): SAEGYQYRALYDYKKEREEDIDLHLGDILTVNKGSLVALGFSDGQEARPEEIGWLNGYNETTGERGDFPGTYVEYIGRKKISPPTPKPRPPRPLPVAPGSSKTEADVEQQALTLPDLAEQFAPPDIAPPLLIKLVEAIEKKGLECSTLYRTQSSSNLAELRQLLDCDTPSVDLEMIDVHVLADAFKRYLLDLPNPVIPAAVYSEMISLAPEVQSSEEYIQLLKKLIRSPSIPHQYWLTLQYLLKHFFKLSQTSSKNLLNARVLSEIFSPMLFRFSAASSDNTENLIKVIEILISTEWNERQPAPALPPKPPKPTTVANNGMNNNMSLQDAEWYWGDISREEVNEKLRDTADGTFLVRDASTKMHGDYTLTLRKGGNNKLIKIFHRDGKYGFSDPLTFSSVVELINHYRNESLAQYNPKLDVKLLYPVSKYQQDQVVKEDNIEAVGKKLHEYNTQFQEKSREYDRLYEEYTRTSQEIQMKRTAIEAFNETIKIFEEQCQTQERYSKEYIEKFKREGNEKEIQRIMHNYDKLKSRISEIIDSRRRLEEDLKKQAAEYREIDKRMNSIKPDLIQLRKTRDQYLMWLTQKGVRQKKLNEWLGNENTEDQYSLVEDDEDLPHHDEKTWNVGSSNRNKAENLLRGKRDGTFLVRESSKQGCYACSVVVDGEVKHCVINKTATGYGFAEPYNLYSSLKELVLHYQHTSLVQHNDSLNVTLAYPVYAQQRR
Chain of PI3K-α (PIK3CA) in MDA-MB-453 cells (P42336 whole entry): as the sequence (P42336 whole entry H1047R) above, with R1047H counted along it

## Cc1cc([C@@H](C)Nc2ccc(Cl)nc2C(=O)O)c2oc(-c3ccc4nc(C)sc4c3)c(C)c(=O)c2c1 [Example 246, 6-Chloro-3-[[(1R)-1-[3,6-dimethyl-2-(2-methyl-l,3-benzothiazol-6-yl)-4-oxo-chromen-8-yl]ethyl]amino]pyridine-2-carboxylic acid]
[1]; Soy PI lipid substrate
  pIC50: > 6.30
[2]; Soy PI lipid substrate
  pIC50: 6.00 to 6.30
[3]
  pIC50: > 7.30

## Cc1cc([C@@H](C)Nc2cccc(F)c2C(=O)O)c2oc(-c3nn(C)c4ccccc34)c(C)c(=O)c2c1 [Example 230, 2-[[(1R)-1-[3,6-Dimethyl-2-(1-methylindazol-3-yl)-4-oxo-chromen-8-yl]ethyl]amino]-6-fluoro-benzoic acid]
[1]; Soy PI lipid substrate
  pIC50: > 6.30
[2]; Soy PI lipid substrate
  pIC50: > 6.30
[3]
  pIC50: 7.00 to 7.30

## Cc1cc(C(C)Nc2ccccc2C(=O)O)c2oc(-c3cnc4c(c3)OCCO4)cc(=O)c2c1 (single isomer, unassigned) [Example 163, 2-[1-[2-(2,3-Dihydro-[1,4]dioxino[2,3-b]pyridin-7-yl)-6-methyl-4-oxo-chromen-8-yl]ethylamino]benzoic acid]
[1]; Soy PI lipid substrate
  pIC50: > 6.30
[2]; Soy PI lipid substrate
  pIC50: 5.00 to 5.30
[3]
  pIC50: 7.00 to 7.30

## Cc1cc(C(C)Nc2ccccc2C(=O)O)c2oc(-c3ccc4cnn(C)c4n3)cc(=O)c2c1 (single isomer, unassigned) [Example 82, 2-[1-[6-Methyl-2-(1-methylpyrazolo[3,4-b]pyridin-6-yl)-4-oxo-chromen-8-yl]ethylamino]benzoic acid]
[1]; Soy PI lipid substrate
  pIC50: > 6.30
[2]; Soy PI lipid substrate
  pIC50: 6.00 to 6.30
[3]
  pIC50: 6.30 to 7.00

## Cc1cc([C@@H](C)Nc2ccc(C(F)(F)F)nc2C(=O)O)c2oc(-c3ccc4nc(C)sc4n3)c(C)c(=O)c2c1 [Example 233, 3-[[(1R)-1-[3,6-Dimethyl-2-(2-methylthiazolo[5,4-b]pyridin-5-yl)-4-oxo-chromen-8-yl]ethyl]amino]-6-(trifluoromethyl)pyridine-2-carboxylic acid]
[1]; Soy PI lipid substrate
  pIC50: > 6.30
[2]; Soy PI lipid substrate
  pIC50: 5.30 to 6.00
[3]
  pIC50: 6.30 to 7.00

## Cc1cc([C@@H](C)Nc2ccc(C)nc2C(=O)O)c2oc(-c3ccc4nc(C)sc4n3)c(C)c(=O)c2c1 [Example 265, 3-[[(1R)-1-[3,6-Dimethyl-2-(2-methylthiazolo[5,4-b]pyridin-5-yl)-4-oxo-chromen-8-yl]ethyl]amino]-6-methyl-pyridine-2-carboxylic acid]
[1]; Soy PI lipid substrate
  pIC50: > 6.30
[2]; Soy PI lipid substrate
  pIC50: 5.30 to 6.00
[3]
  pIC50: 7.00 to 7.30

## Cc1cc(C(C)Nc2ccccc2C(=O)O)c2oc(-c3ccc4nc(C)sc4n3)cc(=O)c2c1 (single isomer, unassigned) [Example 139, 2-[1-[6-Methyl-2-(2-methylthiazolo[5,4-b]pyridin-5-yl)-4-oxo-chromen-8-yl]ethylamino]benzoic acid]
[1]; Soy PI lipid substrate
  pIC50: > 6.30
[2]; Soy PI lipid substrate
  pIC50: 5.30 to 6.00
[3]
  pIC50: > 7.30

## Cc1cc(C(C)Nc2ccccc2C(=O)O)c2oc(-c3cnc4nn(C)cc4c3)cc(=O)c2c1 (stereo not drawn) [Example 9, 2-[1-[6-Methyl-2-(2-methylpyrazolo[3,4-b]pyridin-5-yl)-4-oxo-chromen-8-yl]ethylamino]benzoic acid]
[1]; [4]
  pIC50: > 6.30
[2]; [4]
  pIC50: 6.00 to 6.30
[3]
  pIC50: < 6.30

## Cc1cc(C(C)Nc2ccccc2C(=O)O)c2oc(-c3ccc4nc(C#N)ccc4c3)cc(=O)c2c1 (single isomer, unassigned) [Example 207, 2-[1-[2-(2-Cyano-6-quinolyl)-6-methyl-4-oxo-chromen-8-yl]ethylamino]benzoic acid]
[1]; Soy PI lipid substrate
  pIC50: > 6.30
[2]; Soy PI lipid substrate
  pIC50: 6.00 to 6.30
[3]
  pIC50: 7.00 to 7.30

## Cc1cc([C@@H](C)Nc2cccnc2C(=O)O)c2oc(-c3ccc4nc(C)sc4n3)cc(=O)c2c1 [Example 239, 3-[[(1R)-1-[6-Methyl-2-(2-methylthiazolo[5,4-b]pyridin-5-yl)-4-oxo-chromen-8-yl]ethyl]amino]pyridine-2-carboxylic acid]
[1]; Soy PI lipid substrate
  pIC50: 5.30 to 6.00
[2]; Soy PI lipid substrate
  pIC50: < 5.00
[3]
  pIC50: 6.30 to 7.00

## Cc1cc(C(C)Nc2ccc(Cl)nc2C(=O)O)c2oc(-c3nn(C)c4ccccc34)c(C)c(=O)c2c1 (single isomer, unassigned) [Example 170, 6-Chloro-3-[1-[3,6-dimethyl-2-(1-methylindazol-3-yl)-4-oxo-chromen-8-yl]ethylamino]pyridine-2-carboxylic acid]
[1]; Soy PI lipid substrate
  pIC50: > 6.30
[2]; Soy PI lipid substrate
  pIC50: > 6.30
[3]
  pIC50: > 7.30

## Cc1cc(C(C)Nc2ccccc2C(=O)O)c2oc(-c3cnc4ccccn34)cc(=O)c2c1 (single isomer, unassigned) [Example 145, 2-[1-(2-Imidazo[1,2-a]pyridin-3-yl-6-methyl-4-oxo-chromen-8-yl)ethylamino]benzoic acid]
[1]; Soy PI lipid substrate
  pIC50: > 6.30
[2]; Soy PI lipid substrate
  pIC50: 5.30 to 6.00
[3]
  pIC50: 6.30 to 7.00

## Cc1cc([C@@H](C)Nc2ccc(C)nc2C(=O)O)c2oc(-c3ccc4nc(C)cn4c3)cc(=O)c2c1 [Example 225, 6-Methyl-3-[[(1R)-1-[6-methyl-2-(2-methylimidazo[1,2-a]pyridin-6-yl)-4-oxo-chromen-8-yl]ethyl]amino]pyridine-2-carboxylic acid]
[1]; Soy PI lipid substrate
  pIC50: > 6.30
[2]; Soy PI lipid substrate
  pIC50: 5.30 to 6.00
[3]
  pIC50: 6.30 to 7.00

## Cc1cc([C@@H](C)Nc2ccc(Cl)nc2C(=O)O)c2oc(-c3cc4cnccc4o3)c(C)c(=O)c2c1 [Example 214, 6-Chloro-3-[[(1R)-1-(2-furo[3,2-c]pyridin-2-yl-3,6-dimethyl-4-oxo-chromen-8-yl)ethyl]amino]pyridine-2-carboxylic acid]
[1]; Soy PI lipid substrate
  pIC50: > 6.30
[2]; Soy PI lipid substrate
  pIC50: > 6.30
[3]
  pIC50: > 7.30

## Cc1cc(C(C)Nc2ccccc2C(=O)O)c2oc(-n3ncc4ccccc43)cc(=O)c2c1 (single isomer, unassigned) [Example 49, 2-[1-(2-Indazol-1-yl-6-methyl-4-oxo-chromen-8-yl)ethylamino]benzoic acid]
[1]; Soy PI lipid substrate
  pIC50: > 6.30
[2]; Soy PI lipid substrate
  pIC50: 6.00 to 6.30
[3]
  pIC50: > 7.30

## Cc1cc(C(C)Nc2ccccc2C(=O)O)c2oc(-c3ccc4c(c3)OCO4)c(C)c(=O)c2c1 (single isomer, unassigned) [Example 93, 2-[1-[2-(1,3-Benzodioxol-5-yl)-3,6-dimethyl-4-oxo-chromen-8-yl]ethylamino]benzoic acid]
[1]; Soy PI lipid substrate
  pIC50: > 6.30
[2]; Soy PI lipid substrate
  pIC50: 6.00 to 6.30
[3]
  pIC50: > 7.30

## Cc1cc(C(C)Nc2ccccc2C(=O)O)c2oc(-n3ncc4c(C)cccc43)cc(=O)c2c1 (single isomer, unassigned) [Example 88, 2-[1-[6-Methyl-2-(4-methylindazol-1-yl)-4-oxo-chromen-8-yl]ethylamino]benzoic acid]
[1]; Soy PI lipid substrate
  pIC50: > 6.30
[2]; Soy PI lipid substrate
  pIC50: 6.00 to 6.30
[3]
  pIC50: 6.30 to 7.00

## Cc1cc(C(C)Nc2ccccc2C(=O)O)c2oc(-c3ccc4nc(C)sc4c3)cc(=O)c2c1 (single isomer, unassigned) [Example 74, 2-[1-[6-Methyl-2-(2-methyl-1,3-benzothiazol-6-yl)-4-oxo-chromen-8-yl]ethylamino]benzoic acid]
[1]; Soy PI lipid substrate
  pIC50: > 6.30
[2]; Soy PI lipid substrate
  pIC50: 6.00 to 6.30
[3]
  pIC50: > 7.30

## Cc1cc(C(C)Nc2ccccc2C(=O)O)c2oc(-c3ccc4c(c3)NC(=O)C4)cc(=O)c2c1 (single isomer, unassigned) [Example 115, 2-[1-[6-Methyl-4-oxo-2-(2-oxoindolin-6-yl)chromen-8-yl]ethylamino]benzoic acid]
[1]; Soy PI lipid substrate
  pIC50: > 6.30
[2]; Soy PI lipid substrate
  pIC50: 5.30 to 6.00
[3]
  pIC50: 6.30 to 7.00

## Cc1cc(C(C)Nc2ccccc2C(=O)O)c2oc(-c3ccn4nncc4c3)cc(=O)c2c1 (single isomer, unassigned) [Example 58, 2-[1-[6-Methyl-4-oxo-2-(triazolo[1,5-a]pyridin-5-yl)chromen-8-yl]ethylamino]benzoic acid]
[1]; Soy PI lipid substrate
  pIC50: > 6.30
[2]; Soy PI lipid substrate
  pIC50: 5.30 to 6.00
[3]
  pIC50: 6.30 to 7.00

## Cc1cc(C(C)Nc2ccccc2C(=O)O)c2oc(-c3cccc4nn(C)cc34)cc(=O)c2c1 (single isomer, unassigned) [Example 111, 2-[1-[6-Methyl-2-(2-methylindazol-4-yl)-4-oxo-chromen-8-yl]ethylamino]benzoic acid]
[1]; Soy PI lipid substrate
  pIC50: > 6.30
[2]; Soy PI lipid substrate
  pIC50: 6.00 to 6.30
[3]
  pIC50: 6.30 to 7.00

## Cc1cc(C(C)Nc2ccccc2C(=O)O)c2oc(-c3ccc4c(C)nn(C)c4c3)cc(=O)c2c1 (single isomer, unassigned) [Example 27, 2-[1-[2-(1,3-Dimethylindazol-6-yl)-6-methyl-4-oxo-chromen-8-yl]ethylamino]benzoic acid]
[1]; Soy PI lipid substrate
  pIC50: > 6.30
[2]; Soy PI lipid substrate
  pIC50: 6.00 to 6.30
[3]
  pIC50: > 7.30

## Cc1cc(C(C)Nc2ccccc2C(=O)O)c2oc(-c3ccc4nn(C)cc4n3)cc(=O)c2c1 (single isomer, unassigned) [Example 54, 2-[1-[6-Methyl-2-(2-methylpyrazolo[4,3-b]pyridin-5-yl)-4-oxo-chromen-8-yl]ethylamino]benzoic acid]
[1]; Soy PI lipid substrate
  pIC50: > 6.30
[2]; Soy PI lipid substrate
  pIC50: 5.30 to 6.00
[3]
  pIC50: > 7.30

## Cc1cc(C(C)Nc2ccccc2C(=O)O)c2oc(-c3ccc4oc(=O)[nH]c4c3)cc(=O)c2c1 (single isomer, unassigned) [Example 24, 2-[1-[6-Methyl-4-oxo-2-(2-oxo-3H-1,3-benzoxazol-5-yl)chromen-8-yl]ethylamino]benzoic acid]
[1]; Soy PI lipid substrate
  pIC50: > 6.30
[2]; Soy PI lipid substrate
  pIC50: 5.30 to 6.00
[3]
  pIC50: 7.00 to 7.30

## Cc1cc(C(C)Nc2ccccc2C(=O)O)c2oc(-c3cc(C)c4nn(C)cc4c3)cc(=O)c2c1 (single isomer, unassigned) [Example 126, 2-[1-[2-(2,7-Dimethylindazol-5-yl)-6-methyl-4-oxo-chromen-8-yl]ethylamino]benzoic acid]
[1]; Soy PI lipid substrate
  pIC50: > 6.30
[2]; Soy PI lipid substrate
  pIC50: 5.30 to 6.00
[3]
  pIC50: > 7.30
